One compound from patent US10544138B2, “Tricyclic kinase inhibitors of MELK and methods of use” (Dana-Farber Cancer Institute, Inc., priority 2015, dated 2020) can be followed below.

The target of one test is T1, Aurora A (Homo sapiens, UniProt O14965).
T1 sequence (O14965 1-403): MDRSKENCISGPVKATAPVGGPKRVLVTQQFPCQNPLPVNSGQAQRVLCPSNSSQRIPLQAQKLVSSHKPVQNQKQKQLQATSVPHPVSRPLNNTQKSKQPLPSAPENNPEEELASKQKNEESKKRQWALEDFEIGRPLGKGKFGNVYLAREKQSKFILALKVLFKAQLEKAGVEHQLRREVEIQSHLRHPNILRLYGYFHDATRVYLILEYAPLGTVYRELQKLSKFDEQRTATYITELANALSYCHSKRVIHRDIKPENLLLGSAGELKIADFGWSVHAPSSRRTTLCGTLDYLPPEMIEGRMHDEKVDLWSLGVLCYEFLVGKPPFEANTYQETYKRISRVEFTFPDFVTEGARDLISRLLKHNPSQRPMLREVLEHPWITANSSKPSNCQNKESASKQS
Kind of test: Recombinant mitotic kinase assay, Aurora A. The conditions noted are these: recombinant kinases. It counts as biochemical. The protocol:
(§1) […] assays were performed with recombinant protein of the indicated mitotic kinase (left) and AMPK family kinases (right) in the presence of THZ-4-63-1. […] Cells were treated with nocodazole (100 ng/ml) for 18 h or not treated (Asyn., asynchronous). Nocodazole-arrested mitotic cells (M) were isolated via shake-off. The attached cells enriched in G2 phase (G2) were harvested. A portion of the mitotic cells were washed off nocodazole and released into G1 phase after 4 hours of incubation (G1). […] In Panel D, mitotic lysates were prepared from the indicated cells, and treated with λ-phosphatase at 30° C. In Panel E, nocodazole-arrested mitotic cells were treated with increasing concentration of THZ-4-63-1 for 30 min. Cell lysates were subjected to immunoblotting.
(§2) To discover a selective MELK inhibitor, a few molecule scaffolds with the potential of binding to MELK were identified, including 2,4-disubstituted pyrimidines and benzonaphthyridinones. […] To investigate if THZ-4-63-1 confers selective inhibition on MELK, we tested its effect on other mitotic kinases. In assays using recombinant kinases, MELK kinase activity was 20-fold more sensitive to THZ-4-63-1, than that of Aurora A, Aurora B, CDK1, or PLK1 (FIG. 1B).

The next test addresses T2, BRSK1 (Homo sapiens, UniProt Q8TDC3).
T2 sequence (Q8TDC3 1-778): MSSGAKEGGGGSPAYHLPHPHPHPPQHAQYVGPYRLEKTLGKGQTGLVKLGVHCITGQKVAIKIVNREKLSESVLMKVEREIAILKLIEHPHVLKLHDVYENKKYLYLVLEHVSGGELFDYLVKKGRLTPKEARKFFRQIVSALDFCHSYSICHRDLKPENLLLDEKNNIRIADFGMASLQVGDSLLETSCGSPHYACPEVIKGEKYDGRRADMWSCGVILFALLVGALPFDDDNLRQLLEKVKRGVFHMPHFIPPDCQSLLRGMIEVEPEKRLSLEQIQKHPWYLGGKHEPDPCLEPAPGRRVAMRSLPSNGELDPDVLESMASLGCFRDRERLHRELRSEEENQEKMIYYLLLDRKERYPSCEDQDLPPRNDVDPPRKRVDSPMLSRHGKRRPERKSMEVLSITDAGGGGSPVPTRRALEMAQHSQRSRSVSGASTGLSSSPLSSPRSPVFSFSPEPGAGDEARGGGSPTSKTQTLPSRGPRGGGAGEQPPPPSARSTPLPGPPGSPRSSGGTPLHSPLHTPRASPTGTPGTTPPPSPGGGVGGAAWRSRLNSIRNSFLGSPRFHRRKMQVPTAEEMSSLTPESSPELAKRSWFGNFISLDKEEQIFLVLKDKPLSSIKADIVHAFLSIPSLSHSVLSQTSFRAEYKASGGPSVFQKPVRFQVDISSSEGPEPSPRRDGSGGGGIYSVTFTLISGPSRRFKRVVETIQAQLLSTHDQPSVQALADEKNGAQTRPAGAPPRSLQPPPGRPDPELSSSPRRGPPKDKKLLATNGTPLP
Kind of test: Recombinant AMPK family kinase assay, BRSK1. The conditions noted are these: recombinant kinases. It is filed as biochemical. The protocol: as §1, §2

The test system of test [1] is metaphase chromosome alignment. Kind of test: Metaphase chromosome alignment, immunofluorescence after MG132. It counts as cell-based. To be noted: 5 μM for 4 h followed by MG132 (10 μM) 1 h. The protocol: U2OS-GFP-H2B cells were treated with vehicle control (0.02% DMSO, v/v) or 1 μM THZ-4-63-1, and subjected to live imaging. Time is given in hours:minutes, relative to the initial time of drug treatment. The arrow points to chromosomes that haven't incorporated into the metaphase plate. […] MDA-MB-468 cells expressing tet-on-shMELK and GFPH2B cells were treated with doxycycline for three days, before subjected to live imaging. Panel D contains images of immunoblotting of lysates from cells treated as in Panel C. Panel E contains images showing mitotic cell death in a cell treated with THZ-4-63-1. The table indicates the quantification of cell death events. Panel F contains images showing that treatment with THZ-4-63-1 impairs chromosome alignment. Cells were treated with DMSO control, or THZ-4-63-1 (5 μM) for 4 hours, followed by MG132 (10 μM) for 1 h. Cells were fixed and stained with anti-CREST, anti-α-tubulin, and DAPI to visualize chromosomes and kinetochores. The histogram indicates the quantifications of cells in metaphase with misaligned chromosomes.
Indeed, we observed in asynchronized cells that MELK inhibition caused the appearance of scatted chromosome near the metaphase plate (arrowed, FIG. 2A). […]

The subject of test [2] is basal breast cancer cells. Kind of test: Proliferation of basal breast cancer cells. It counts as cell-based. The protocol: Mitotic cells were treated with THZ-4-63-1 at indicated concentrations for 4 h. Cells were collected for immunoblotting. Panel B contains time-lapse images of U2OS-(H2B-GFP) cells treated with THZ-4-63-1 (5 μM). […] Panel C contains blots showing proteasome-mediated degradation of Cyclin B1, Aurora B and MELK in THZ-4-63-1-induced mitotic slippage. Mitotic cells were treated as in Panel A with THZ-4-63-1 (5 μM), or MG132 (10 μM), or both for 4 h. Panel D contains a graph showing quantification of cell proliferation in the indicated breast cancer cell lines, which were treated with vehicle control or THZ-4-63-1 for one week (Top) and also contains bright-field images acquired from control cells or cells treated with THZ-4-63-1 (111 nM) (Bottom). […] Cells were treated with indicated drugs, and harvested in ten days for quantification of cell growth. The bold curve depicts the theoretic prediction of an additive action between paclitaxel and THZ-4-63-1.
With the identification of a selective MELK inhibitor, we next tested if THZ-4-63-1 is an effective agent for those cancer cells. […] The high potency of THZ-4-63-1 not only confirm the previous identification of MELK as an essential kinase for breast cancer, but also poise the compound itself for immediate translational implications.

As a reminder, the IC50 is the concentration that inhibits the measured activity by half. Read a high IC50 as weaker potency. On to `CN(C)Cc1ccc(-n2c(=O)ccc3cnc4ccc(-c5cc(Cl)c(O)c(Cl)c5)cc4c32)cc1` [THZ-4-63-1], for which the “MELK kinase activity more sensitive than that of Aurora A” value at Aurora A is 20 fold. Further, the “Selectivity for MELK over BRSK1” value at BRSK1 was “preferentially targets MELK”. Further, in test [1], the “Cells with failure in metaphase chromosome alignment” value was “approximately 80%”. In addition, in test [2] (168 h, treated one week), the IC50 is about 50 nM. In addition, the “Cell death at low nanomolar dose” value in test [2] (basal breast cancer cells) is on record as “nearly complete cell death”.
